# Like-named read-outs stand apart in the source and are kept apart here.
# Experiments:
# [1] = system: P-glycoprotein (Pgp); test: Pgp-induction assay, rhodamine123 (Rh123) cell exclusion method in LS180 cells; type: cell-based; settings: for EC50: 48 h treatment, Rh123 fluorescence; for Pgp induction activity compared to parent natural product: 1b, 1g versus garcinol (1a), 2b versus isogarcinol (2a)
# Protocol: All synthesized compounds were screened for their ability to induce Pgp by using rhodamine123 (Rh123) cell exclusion method. In this method, the Pgp function was evaluated in terms of rhodamine 123 (Rh123) accumulations and efflux. Briefly, the protocol used is as follows: Colorectal LS180 cells Colorectal LS-180 cells [obtained from ECACC (European Collection of Cell Cultures) catalogue number: 87021202; passage number 52] were seeded at a density of 2×10^4 per well of 96 well plate and were allowed to grow for next 24 h. Cells were further incubated with the test compounds, and were diluted to a final concentration of 100 nM and rifampicin (standard) to a final concentration of 10 μM in complete media for 48 h. The final concentration of DMSO was kept at 0.1%. Drugs were removed and cells were incubated with HANKS buffer for 40 minutes before further incubation with HANKS buffer (containing 10 μM of Rh123 as a Pgp substrate) for 90 minutes. At the end of Rh123 treatment cells were washed four times with cold PBS followed by cell lysis for 1 h by using 200 μl of lysis buffer (0.1% Triton X-100 and 0.2 N NaOH). A total of 100 μl of lysate was used for reading fluorescence of Rh123 at 485 nm/529 nm. Samples were normalized by dividing fluorescence of each sample with total protein present in the lysate. […] For EC50 determination, different concentrations of compound were used to treat LS180 cells for 48 h. EC50 was determined by plotting fluorescence of Rh123 against concentration of compound.
# [2] = Cytotoxicity in LS-180 cells using MTT assay; settings: human
# Protocol: (§1) Compounds proposed in present invention were evaluated for their cytotoxic effect in LS-180 cells using MTT assay. In each well of a 96-well plate, 3×10^3 cells were grown in 100 μL of medium. After 24 h, each test molecules were added to achieve a final concentration of 10 to 0.01 μmol/L, respectively. After 48 h of treatment, 20 μL of 2.5 mg/mL MTT solution in phosphate buffer saline was added to each well. After 48 h, supernatant was removed and formazan crystals were dissolved in 200 μL of DMSO. Absorbance was then measured at 570 nm using an absorbance plate reader. Data are expressed as the percentage of viable cells in treated relative to non-treated conditions.
# [3] = in vitro; settings: human
# Protocol: as §1
# [4] = LS180 cells, values in text, read-out: EC50 for p-glycoprotein induction activity
# [5] = LS-180 cells, read-out: Pgp induction EC50
SMILES,"EC50 [1, 4] [µM]","EC50 [1, 5] [µM]",IC50 at 48 h [3] [µM],Pgp induction activity compared to parent natural product ([1]; LS180 cells),IC50 at 48 h [2] [µM]
"C=C(C)C(CC=C(C)C)CC12CC(CC=C(C)C)C(C)(C)C(CC=C(C)C)(C(=O)C(C(=O)c3ccc(OC(=O)CCC)c(OC(=O)CCC)c3)=C1O)C2=O (centres unmarked) [Compound 1b, 3′,4′-Di-(O-Butanoyl)-Garcinol]",0.0089,–,–,better,–
"C=C(C)[C@@H](CC=C(C)C)C[C@@]12C[C@@H](CC=C(C)C)C(C)(C)[C@@](CC=C(C)C)(C(=O)C(C(=O)c3ccc(O)c(O)c3)=C1O)C2=O [Compound 1a, Garcinol, reference compound]",–,0.012,20,–,–
"C=C(C)C(CC=C(C)C)CC12CC(CC=C(C)C)C(C)(C)C(CC=C(C)C)(C(=O)C(C(=O)c3ccc(OCc4ccccc4[N+](=O)[O-])c(OCc4ccccc4[N+](=O)[O-])c3)=C1O)C2=O (centres unmarked) [Compound 1g, 3′,4′-di-[O-(2″-nitro-benzyl)]-garcinol]",0.0068,–,–,–,> 100

# The next lines start with results.
"EC50 [1, 4] [µM]","EC50 [1, 5] [µM]",IC50 at 48 h [3] [µM],SMILES,Pgp induction activity compared to parent natural product ([1]; LS180 cells),IC50 at 48 h [2] [µM]
0.0029,–,–,"CC(C)=CCOc1ccc(C(=O)C2=C3OC(C)(C)C(CC=C(C)C)CC34CC(CC=C(C)C)C(C)(C)C(CC=C(C)C)(C2=O)C4=O)cc1OCC=C(C)C (centres unmarked) [Compound 2b, 3′,4′-di-(O-prenyl)-isogarcinol]",better,40
–,0.007,–,"CC(C)=CC[C@H]1C[C@@]23C[C@@H](CC=C(C)C)C(C)(C)[C@@](CC=C(C)C)(C(=O)C(C(=O)c4ccc(O)c(O)c4)=C2OC1(C)C)C3=O [Compound 2a, Isogarcinol, reference compound]",–,11

# Source: patent US10202326B2, “Polyprenylated phloroglucinol compounds as potent P-glycoprotein inducers” (COUNCIL OF SCIENTIFIC & INDUSTRIAL RESEARCH, priority 2014, dated 2019)
